Test results: patent US20060275816A1, “Methods for identifying drug pharmacology and toxicology” (priority 2005, published 2006)
“Also recorded” adds a separate entry of the source. Where two headings read alike, the source gives them in different places.

How the values were obtained:
HepG2 cells [1] = assay: Cytotoxicity, CellTiter Blue Cell Viability Assay (LD50); format: cell-based
Experimental: FIG. 3 provides a graphical illustration of an experimental approach used to assess candidate compounds. (1) Cells were plated and allowed to adhere for one day. At that time various concentrations of compound were added to cells and incubated for an additional 72 hours. […] (2) Cells were plated as above and treated with compound at the predetermined LD50 concentration. Following 24 hours incubation in the presence of compound, cells were collected, RNA was harvested and 3) analyzed using the RiboChip.
In an embodiment, human hepatocellular carcinoma HepG2 cells were used to test the effect of a compound on liver biology and toxicology. […] In an embodiment, a single acute dose of a compound is used. […] The choice of high dose identifies the possible modes of toxicity and detects low-incidence responses.
Cells were maintained as recommended in Minimal Essential Medium (MEM) (Gibco-BRL, a Division of Invitrogen, Carlsbad, Calif.) with 10% fetal bovine serum (FBS, HyClone, Logan, Utah) supplemented with antibiotics in p150 plates at 37° C., 5% CO2. Cells were split 1:5 and fresh media added every 3 days.
Cytotoxicity was assessed using the Alamar Blue-based CellTiter™ Blue Cell Viability Assay (Promega, Madison, Wis.) to determine the viable cell fraction that remained following a 72 hour treatment period. Cells (˜8,000 cells/well) were plated in 96 well BioCoat collagen coated plates (Becton Dickinson, Franklin Lakes, N.J.) using standard media. […] Cells were then allowed to recover for 24 hours at 37° C., 5% CO2. A two (2) fold dilution series was prepared for each compound starting at 3.0 mM in MEM containing 0.1% BSA (instead of 10% FBS) but without phenol red or antibiotics. Following the cell recovery period, the media was removed and fresh media containing compound was added. Treatments were performed in triplicate for each compound at each dose. Cells were incubated with compound for 72 hours at 37° C., 5% CO2. The viable cell fraction remaining was determined by washing the wells with fresh media without indicator, lysing the remaining live cells by adding 0.9% Triton X-100 (Sigma, St. Louis, Mo.) in water, and performing the Alamar Blue assay as described in the CellTiter™ Blue Cell Viability Assay product literature.

HepG2 cells [2] = assay: Apoptosis, Apo-ONE Homogeneous Caspase-3/7 Assay; format: cell-based, human; details: 24 hours
[3] = patients; Lebovitz 2002; cited from earlier work
CCR2 mRNA = assay: Quantitative Real Time PCR of CCR2 mRNA in TZD-treated cells; details: HepG2 cells, LD50 concentration, 24 hours, compound alone
[4] = HepG2 cells, concentration giving 50% cell death after 72 hours

Molecule: CCOC(=O)C(C)(C)Oc1ccc(Cl)cc1 [Clofibrate]
- LD50 (HepG2 cells [1]; [4]): 240 µM

Molecule: CC1(COc2ccc(CC3SC(=O)NC3=O)cc2)CCCCC1 (stereo not drawn) [Ciglitazone]
- induction of apoptosis (Caspase 3/7 activity) (HepG2 cells [2]): potent inducers of apoptosis
- cell death at 175 μM (HepG2 cells [1]): significant cell death
- LD50 (HepG2 cells [1]; human, 72 h): 76 µM

Molecule: O=C(O)C(F)(F)C(F)(F)C(F)(F)C(F)(F)C(F)(F)C(F)(F)C(F)(F)F [Perfluourooctanoic Acid]
- LD50 (HepG2 cells [1]; [4]): 191 µM

Molecule: CC(C)(Oc1ccc(CCNC(=O)c2ccc(Cl)cc2)cc1)C(=O)O [Bezafibrate]
- LD50 (HepG2 cells [1]; [4]): 1940 µM

Molecule: CCCCC(CC)COC(=O)c1ccccc1C(=O)OCC(CC)CCCC (stereo not drawn) [Diethylhexylphthalate]
- LD50 (HepG2 cells [1]; [4]): 34 µM

Molecule: Cc1c(C)c2c(c(C)c1O)CCC(C)(COc1ccc(CC3SC(=O)NC3=O)cc1)O2 (stereo not drawn) [Troglitazone]
- toxicity that ended marketing or development [3]: hepatotoxicity
- induction of apoptosis (Caspase 3/7 activity) (HepG2 cells [2]): potent inducers of apoptosis
- cell death at 175 μM (HepG2 cells [1]): significant cell death
- LD50 (HepG2 cells [1]; [4]): 18 µM
- increased CCR2 expression relative to control (CCR2 mRNA): 6 ×

Molecule: O=C(Nc1ccccc1)c1cc([N+](=O)[O-])ccc1Cl [GW-9662]
- LD50 (HepG2 cells [1]): 125 µM

Molecule: CCCCC/C=C/C=C1/C(=O)C=C[C@@H]1C/C=C\CCCC(=O)O [15-Deoxy-Δ^12,14-Prostaglandin J2]
- LD50 (HepG2 cells [1]): 34 µM

Molecule: CCc1ccc(CCOc2ccc(CC3SC(=O)NC3=O)cc2)nc1 (stereo not drawn) [Pioglitazone]
- induction of apoptosis (Caspase 3/7 activity) (HepG2 cells [2]): did not induce apoptosis at all or only modestly did so; also recorded: undetectable

Molecule: Cc1ccc(C)c(OCCCC(C)(C)C(=O)O)c1 [Gemfibrozil]
- LD50 (HepG2 cells [1]; [4]): 163 µM

Molecule: N-Acetly-Asp-Glu-Val-Asp-aldehyde [DEVD]
- block of TZD-induced apoptosis (HepG2 cells [2]; co-administered with TZDs): efficiently blocked

Molecule: Cc1cccc(Nc2cc(Cl)nc(SCC(=O)O)n2)c1C [Wyeth14643]
- LD50 (HepG2 cells [1]): 226 µM

Molecule: CN(CCOc1ccc(CC2SC(=O)NC2=O)cc1)c1ccccn1 (stereo not drawn) [Rosiglitazone]
- induction of apoptosis (Caspase 3/7 activity) (HepG2 cells [2]): did not induce apoptosis at all or only modestly did so

Molecule: CCCCCCCCCCCCCCC(Br)C(=O)O (stereo not drawn) [2-Bromohexadecanoic Acid]
- LD50 (HepG2 cells [1]; [4]): 94 µM

Molecule: CC(C)OC(=O)C(C)(C)Oc1ccc(C(=O)c2ccc(Cl)cc2)cc1 [Fenofibrate]
- LD50 (HepG2 cells [1]; human, 72 h): 500 µM
